Like-named read-outs stand apart in the source and are kept apart here.
Tests used:
[1] = system: human B cell lymphoma cell KARPAS422; assay: Cell proliferation (WST-8), KARPAS422, 7 days; assay type: cell-based; conditions: KARPAS-422, 168 h, WST-8, Table 4A, read-out: Karpas Cell line
Procedure: Analysis of Cell Proliferation:
To assess the effect of PRC2 inhibition on cell growth, cells were seeded in 96-well cell culture plates at a density of 2 000-3 000 cells/well in 200 μL of culture medium, and treated with serially diluted compounds for 7 days at 37° C. in an atmosphere of 5% CO2. Cell growth was evaluated by a […] WST-8 assay (Dojindo Molecular Technologies) using a Tecan Infinite M1000 multimode microplate reader (Tecan, Morrisville, NC). The WST-8 reagent was added to the plate, incubated for 1-4 h, and read at 450 nm. The readings were normalized to the DMSO-treated cells, and the IC50 was calculated by nonlinear regression analysis using GraphPad Prism 6 software

EED (1-441)-His protein = biological target: T1, EED (1-441)-His protein (Homo sapiens, UniProt O75530); assay: EED-H3K27Me3 peptide competition binding assay by AlphaScreen; conditions: read-out: Alpha screen
T1 construct: 20 nM EED (1-441)-His protein
T1 sequence (O75530 whole entry): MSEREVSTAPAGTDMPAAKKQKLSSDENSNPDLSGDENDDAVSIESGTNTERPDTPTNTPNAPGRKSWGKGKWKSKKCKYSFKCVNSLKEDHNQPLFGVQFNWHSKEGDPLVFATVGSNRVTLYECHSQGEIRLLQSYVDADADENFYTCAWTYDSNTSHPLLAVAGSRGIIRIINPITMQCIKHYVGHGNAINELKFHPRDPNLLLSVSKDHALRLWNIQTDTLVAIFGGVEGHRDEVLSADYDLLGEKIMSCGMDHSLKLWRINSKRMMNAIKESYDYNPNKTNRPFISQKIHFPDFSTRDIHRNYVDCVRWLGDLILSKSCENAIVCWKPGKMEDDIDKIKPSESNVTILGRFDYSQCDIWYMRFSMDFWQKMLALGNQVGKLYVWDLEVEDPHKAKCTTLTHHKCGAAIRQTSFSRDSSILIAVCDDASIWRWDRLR
Method in brief: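 Readout was AlphaScreen emission at 615 nm after 680 nm excitation, with 10 μg/ml final each of streptavidin donor and nickel chelate acceptor beads, 1 h at RT in the dark. Beforehand, compound met the His-tagged EED(1-441) for 15 min and then biotinylated H3K27Me3(19-33) peptide for 30 min; both were added as 20 nM solutions, buffer 25 mM HEPES pH 8, Tween-20, BSA. Percent activity left was fitted to give IC50.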

[2] = system: BAP1 mut mesothelioma PDX model; assay: BAP1 mut mesothelioma PDX model (Examples 15-17); assay type: in vivo, mice; conditions: Compound A-1 10 mg/kg, orally, every other day, 28 days; end of study
Procedure: A subcutaneous xenograft tumor model of human tumor immunodeficient mice was established by cell inoculation: tumor cells in logarithmic growth phase were collected, counted, resuspended in 1×PBS, and the cell suspension concentration was adjusted to 2.5-5×10^7/mL. The tumor cells were inoculated subcutaneously in the right side of immunodeficient mice with a 1 ml syringe ([…]), 5-10×10^6/0.2 mL/mouse. All animal experiments were strictly in accordance with the specifications for the use and management of experimental animals in GenePharma Co., Ltd. and Suzhou Ascentage Pharma Co., Ltd. The calculation of relevant parameters refers to the Chinese NMPA “Guidelines for Non-Clinical Research Techniques of Cytotoxic Anti-tumor Drugs”.
Animal body weight and tumor size were measured twice weekly during the experiment. The state of the animal and the presence or absence of death were observed every day. The growth of tumor and the effects of treatment on normal behavior of animals were monitored routinely, specifically involving experimental animal activity, feeding and drinking, weight gain or loss, eyes, clothing hair and other abnormalities. The deaths and clinical symptoms observed during the experiment were recorded in the raw data. All operations for administration and measurement of mouse body weight and tumor volume were performed in a clean bench. According to the requirements of the experimental protocol, after the end of the last administration, plasma and tumor tissues were collected, weighed and photographed. The plasma and tumor samples were frozen at −80° C. for ready-to-use.
Tumor volume (TV) is calculated as: TV=a×b^2/2, wherein a and b represent the length and width of the tumor to be measured, respectively.
The relative tumor volume (RTV) is calculated as: RTV=Vt/V1, wherein V1 is the tumor volume at the start of grouping and administration, and Vt is the tumor volume measured on the t day after administration.
The evaluation index of anti-tumor activity is the relative tumor proliferation rate T/C (%), and the calculation formula thereof is: relative tumor proliferation rate T/C (%)=(TRTV/CRTV)×100%, TRTV is the RTV of treatment group, CRTV is the RTV of solvent control group.
A dose of drug is considered to be severely toxic if the body weight of mouse is reduced by more than 20% or the number of drug-related deaths exceeds 20%.
According to the description by Clarke R., Issues in experimental design and endpoint analysis in the study of experimental cytotoxic agents in vivo in breast cancer and other models [J]. Breast Cancer Research & Treatment, 1997, 46(2-3): 255-278, synergy analysis was evaluated using the following formula: synergy factor=((A/C)×(B/C))/(AB/C); A=RTV value of drug A alone group; B=RTV value of drug B alone group; C=RTV value of the solvent control group, and AB=RTV value of the A and B combination group.
In this experiment, a BAP1 mut mesothelioma PDX model (Lide Biotech) was established to evaluate the anti-tumor effect of Compound 73. The dosing regimen was as follows: • Compound 73: 50 mg/kg, orally, once per day, for a total of 28 days; • Compound 73: 100 mg/kg, orally, once per day, for a total of 28 days;
In this experiment, a BAP1 mut mesothelioma PDX model (Lide Biotech) was established to evaluate the anti-tumor effect of Compound 73 in combination with Compound A-1. […]

Compound	IC50 [1]	IC50 (EED (1-441)-His protein; Table 4A)	IC50 (EED (1-441)-His protein; IC50 class, Table 4B)	further results
O=C1c2ncn3c(NCc4c(F)ccc5c4CCO5)ncc(c23)-c2ccc(F)cc2CN1C1CC1 [Compound 64, 4-cyclopropyl-7-fluoro-12-(((5-fluoro-2,3-dihydrobenzofuran-4-yl)methyl)amino)-4,5-dihydro-3H-2,4,11,12a-tetraazabenzo[4,5]cycloocta[1,2,3-cd] inden-3-one]	2.44 nM			
O=C1c2ncn3c(NCc4c(F)ccc5c4CCO5)ncc(c23)-c2ccc(F)cc2CN1C1CCOCC1 [Compound 65, 7-fluoro-12-(((5-fluoro-2,3-dihydrobenzofuran-4-yl)methyl)amino)-4-(tetrahydro-2H-pyran-4-yl)-4,5-dihydro-3H-2,4,11,12a-tetraazabenzo[4,5] cycloocta[1,2,3-cd]inden-3-one]	0.69 nM			
CN1CCC(N2Cc3cc(F)ccc3-c3cnc(NCc4c(F)ccc5c4CCO5)n4cnc(c34)C2=O)CC1 [Compound 75, 7-fluoro-12-(((5-fluoro-2,3-dihydrobenzofuran-4-yl)methyl)amino)-4-(1-methylpiperidin-4-yl)-4,5-dihydro-3H-2,4,11,12a-tetraazabenzo[4,5] cycloocta[1,2,3-cd]inden-3-one]	11.1 nM	1.72 nM		
CC(F)(F)CN1Cc2cc(F)ccc2-c2cnc(NCc3c(F)ccc4c3CCO4)n3cnc(c23)C1=O [Compound 76, 4-(2,2-difluoropropyl)-7-fluoro-12-(((5-fluoro-2,3-dihydrobenzofuran-4-yl)methyl)amino)-4,5-dihydro-3H-2,4,11,12a-tetraazabenzo[4,5]cycloocta [1,2,3-cd]inden-3-one]	14.5 nM	0.97 nM		
CC(C)(F)CN1Cc2cc(F)ccc2-c2cnc(NCc3c(F)ccc4c3CCO4)n3cnc(c23)C1=O [Compound 78, 7-fluoro-12-(((5-fluoro-2,3-dihydrobenzofuran-4-yl)methyl)amino)-4-(2-fluoro-2-methylpropyl)-4,5-dihydro-3H-2,4,11,12a-tetraazabenzo[4,5] cycloocta[1,2,3-cd]inden-3-one]	34.5 nM	3.23 nM		
O=C1c2ncn3c(NCc4c(F)ccc5c4CCO5)ncc(c23)-c2ccc(F)cc2CN1CCF [Compound 79, 7-fluoro-12-(((5-fluoro-2,3-dihydrobenzofuran-4-yl)methyl)amino)-4-(2-fluoroethyl)-4,5-dihydro-3H-2,4,11,12a-tetraazabenzo[4,5]cycloocta [1,2,3-cd]inden-3-one]	15.3 nM	1.61 nM		
O=C1c2ncn3c(NCc4c(F)ccc5c4CCO5)ncc(c23)-c2ccc(F)cc2CN1CC(F)F [Compound 80, 4-(2,2-difluoroethyl)-7-fluoro-12-(((5-fluoro-2,3-dihydrobenzofuran-4-yl)methyl)amino)-4,5-dihydro-3H-2,4,11,12a-tetraazabenzo[4,5]cycloocta[1,2,3-cd]inden-3-one]	2.42 nM	1.61 nM		
Cc1ccc(C(=O)Nc2ccc(CN3CCN(C)CC3)c(C(F)(F)F)c2)cc1C#Cc1cnc2[nH]ncc2c1 [Compound A-1]				T/C (%) [2]: 74.8%

Now from value to compound, other results behind:

IC50 [1]	IC50 (EED (1-441)-His protein; Table 4A)	IC50 (EED (1-441)-His protein; IC50 class, Table 4B)	Compound	further results
		< 10 nM	CC(C)c1ccc2c(n1)CN(CC(F)F)C(=O)c1ncn3c(NCc4c(F)ccc5c4CCO5)ncc-2c13 [E 47, 4-(2,2-difluoroethyl)-12-(((5-fluoro-2,3-dihydrobenzofuran-4-yl)methyl)amino)-7-isopropyl-4,5-dihydro-3H-2,4,6,11,12a-pentaazabenzo[4,5]cycloocta[1,2,3-cd]inden-3-one]	
		< 10 nM	O=C1c2ncn3c(NCc4c(F)ccc5c4CCO5)ncc(c23)-c2ccc(C3COCCO3)nc2CN1CC(F)(F)F (stereo not drawn) [E 48, 7-(1,4-dioxan-2-yl)-12-(((5-fluoro-2,3-dihydrobenzo-furan-4-yl)methyl)amino)-4-(2,2,2-trifluoroethyl)-4,5-dihydro-3H-2,4,6, 11,12a-pentaazabenzo[4,5] cycloocta[1,2,3-cd]inden-3-one]	
		< 10 nM	O=C1c2ncn3c(NCc4c(F)ccc5c4CCO5)ncc(c23)-c2ccc(CC3COCCO3)nc2CN1CC(F)(F)F (stereo not drawn) [E 49, 7-((1,4-dioxan-2-yl)methyl)-12-(((5-fluoro-2,3-dihydrobenzofuran-4-yl)methyl)amino)-4-(2,2,2-trifluoroethyl)-4,5-dihydro-3H-2,4,6,11,12a-pentaazabenzo[4,5]cycloocta[1,2,3-cd] inden-3-one]	
		< 10 nM	CC(C)(C)c1ccc2c(n1)CN(CC(F)(F)F)C(=O)c1ncn3c(NCc4c(F)ccc5c4CCO5)ncc-2c13 [E 50, 7-(tert-butyl)-12-(((5-fluoro-2,3-dihydrobenzofuran-4-yl)methyl)amino)-4-(2,2,2-trifluoroethyl)-4,5-dihydro-3H-2,4,6,11,12a-pentaazabenzo[4,5] cycloocta[1,2,3-cd]inden-3-one]	
		< 10 nM	O=C1c2ncn3c(NCc4c(F)ccc5c4CCO5)ncc(c23)-c2ccc(C3CCC3)nc2CN1CC(F)(F)F [E 52, 7-cyclobutyl-12-(((5-fluoro-2,3-dihydrobenzofuran-4-yl)methyl)amino)-4-(2,2,2-trifluoroethyl)-4,5-dihydro-3H-2,4,6,11,12a-pentaazabenzo[4,5] cycloocta[1,2,3-cd]inden-3-one]	
